Reference: ChEMBL document CHEMBL1201862, “PubChem BioAssay data set” (2004)
Activity calls are given as the source filed them. Cut-off read from the data, not from the text of the source, for most assays here: actives have a measured EC50 and inactives only a lower limit.

What was measured:
[1] = biological target: T1, Serine/threonine-protein phosphatase (Candida dubliniensis (strain CD36 / CBS 7987 / NCPF 3949 / NRRLY-17841) (Yeast), UniProt B9W6M3); test: blockers of CaCl2-induced CDRE-lacZ signaling – S. cerevisiae, luminescence, secondary, dose response (AID 2388); type: functional, cell-based;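 note: yeast reporter cells carrying a calcineurin-responsive lacZ construct stimulated with calcium chloride; luminescent beta-galactosidase reporter signal in whole cells rather than isolated phosphatase activity; potency for inhibition where a drop in reporter signal means calcineurin blockade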
T1 sequence (B9W6M3 whole entry): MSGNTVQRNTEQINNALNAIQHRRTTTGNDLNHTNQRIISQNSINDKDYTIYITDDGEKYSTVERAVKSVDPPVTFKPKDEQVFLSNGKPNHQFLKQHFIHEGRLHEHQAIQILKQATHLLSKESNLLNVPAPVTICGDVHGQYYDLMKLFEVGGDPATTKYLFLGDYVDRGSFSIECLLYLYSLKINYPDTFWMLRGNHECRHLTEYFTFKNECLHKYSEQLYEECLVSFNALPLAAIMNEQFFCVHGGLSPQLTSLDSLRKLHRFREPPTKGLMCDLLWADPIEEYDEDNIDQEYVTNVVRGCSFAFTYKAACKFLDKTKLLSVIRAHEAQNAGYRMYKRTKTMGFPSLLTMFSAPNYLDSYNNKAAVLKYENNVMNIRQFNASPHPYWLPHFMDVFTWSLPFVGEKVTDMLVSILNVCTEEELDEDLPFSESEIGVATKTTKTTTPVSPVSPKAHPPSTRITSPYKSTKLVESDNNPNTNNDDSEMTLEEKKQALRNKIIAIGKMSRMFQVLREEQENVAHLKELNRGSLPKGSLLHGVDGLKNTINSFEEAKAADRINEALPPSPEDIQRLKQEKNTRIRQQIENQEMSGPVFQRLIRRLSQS

[2] = biological target: ATP-dependent molecular chaperone HSP82 (Candida albicans (strain WO-1) (Yeast), UniProt C4YTQ8); test: steroid-induced GRE reporter decrease in yeast – S. cerevisiae, luminescence, Hsp90 inhibitor project, dose response (AID 2400); type: functional, cell-based;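 note: beta-galactosidase luminescence from glucocorticoid response element reporter as proxy for Hsp90 function; inhibitor potency where signal loss means Hsp90 inhibition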
[3] = fluconazole-exposed Candida albicans growth modulators – fluorescence, retest, confirmation (AID 2467); type: functional, cell-based
[4] = NIH-3T3 fibroblast cytotoxicity, dose response, cytotoxicity control, cell-based, fluorescence, Alamar Blue, secondary assay (AID 2327); type: functional;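 note: NIH-3T3 mouse fibroblasts cultured with fluconazole at 8 µg/mL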
[5] = biological target: Nonstructural protein 1 (Influenza A virus, UniProt Q194T2); type: functional, Influenza A virus (A/California/07/2009(H1N1))
[6] = biological target: Protein Wnt-3a (Mus musculus, UniProt P27467); test: antagonism of Wnt3a pathway luciferase reporter – Wnt-LIGHT cells, luminescence, selectivity assay for Gli-SUFU antagonist project, dose response (AID 651570); type: functional; details: read-out: IC50_Mean;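 note: Wnt-LIGHT reporter cells stimulated with conditioned medium from Wnt3a-producing cells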
[7] = Trypanosoma cruzi growth suppression in host cells – NIH3T3 host cells, beta-gal luminescence, confirmation (AID 2044); type: functional, cell-based;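 note: intracellular parasites grown in NIH/3T3 mouse fibroblasts as host cells; luminescent beta-galactosidase reporter signal from transgenic T. cruzi replicating inside host cells; inhibitors lower the luminescence signal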
[8] = NIH3T3 cell viability loss – ATP luminescence, mouse fibroblasts, counter-screen, dose response (AID 2010); type: functional, cell-based;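 note: cells exposed to compound for about 90 hours before reading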
[9] = DRD fibroblast viability loss – cell-based, non-viral oncogenic, luminescence, dose response (AID 1934); type: functional; details: Homo sapiens
[10] = test system: BJ; test: cells; type: functional, cell-based; details: Homo sapiens
[11] = biological target: T2, Fatty acid synthase (Homo sapiens, UniProt P49327); test: inhibition of human FAS-TE enzyme activity – biochemical, kinetic fluorescence intensity, dose response (AID 624326); type: functional;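 note: rate of fluorescence rise from hydrolysis of a fluorogenic O-methyl fluorescein ester substrate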
[12] = test system: BJ; test: BJ-TERT-LT-ST fibroblast viability loss – cell-based, RAS-independent, luminescence, dose response (AID 1935); type: functional; details: Homo sapiens;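 note: BJ fibroblasts immortalized with TERT plus LT and ST oncogenes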
[13] = HEK-293T viability loss after treatment – luminescence, T-cell screen hits, cytotoxicity control for TCR NF-kB inhibitor project, dose response (AID 489026); type: functional, cell-based;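 note: cells exposed to compound about 14 hours before the viability readout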
[14] = test system: BJ; test: BJ-TERT fibroblast viability loss – cell-based, RAS-independent, luminescence, dose response (AID 1933); type: functional; details: Homo sapiens
[15] = biological target: T2, Fatty acid synthase; test: inhibition of human FAS-TE enzyme activity – biochemical, endpoint fluorescence intensity, uHTS hits, dose response (AID 624327); type: functional;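 note: fluorescence from hydrolysis of an O-methyl fluorescein acyl ester substrate by the enzyme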
[16] = test system: Streptococcus sp. 'group A'; test: Streptococcus pyogenes SK(-)GAS viability under kanamycin – luminescence, BacTiterGlo, confirmation, counter-screen for streptokinase expression inhibitor project, dose response (AID 1900); type: functional, organism-based
[17] = test system: Streptococcus; test: GAS UMAA2166 growth inhibition – luminescence, BacTiterGlo, counter-screen for streptokinase expression inhibitor project, dose response (AID 1915); type: functional, organism-based;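 note: potency for reduction of bacterial viability or growth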
[18] = test system: INS1; test: INS-1E survival protection against cytokine death – cell-based, luminescence, retest, dose response (AID 449756); type: functional; details: Rattus norvegicus;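 note: cell death triggered by IL-1 beta plus TNF-alpha plus IFN-gamma mixture; protective hits raise ATP signal compared with cytokine alone wells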
[19] = biological target: T3, Streptokinase A (Streptococcus pyogenes serotype M1, UniProt P10520); test: viability-normalized secreted streptokinase activity reduction – plasminogen activation absorbance, OD405, dose response (AID 1914); type: functional, Streptococcus pyogenes M1 GAS;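 note: secreted streptokinase activity via plasminogen activation per viability signal from cell pellet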
T3 sequence (P10520 whole entry): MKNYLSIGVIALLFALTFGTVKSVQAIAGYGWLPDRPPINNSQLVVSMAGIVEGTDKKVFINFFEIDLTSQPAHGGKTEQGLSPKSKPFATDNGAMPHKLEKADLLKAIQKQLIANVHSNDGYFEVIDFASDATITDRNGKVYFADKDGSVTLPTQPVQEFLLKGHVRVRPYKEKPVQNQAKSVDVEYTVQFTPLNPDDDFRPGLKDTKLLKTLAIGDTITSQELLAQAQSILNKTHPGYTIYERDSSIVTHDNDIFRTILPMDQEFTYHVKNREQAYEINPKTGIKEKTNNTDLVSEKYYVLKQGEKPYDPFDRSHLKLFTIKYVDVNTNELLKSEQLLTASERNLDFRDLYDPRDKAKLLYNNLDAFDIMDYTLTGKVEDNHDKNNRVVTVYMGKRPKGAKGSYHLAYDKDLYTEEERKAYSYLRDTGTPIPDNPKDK

[20] = biological target: T4, Microphthalmia-associated transcription factor (Homo sapiens, UniProt O75030); test: reducers of TRPM1 reporter luminescence, concentration series – cell-based, SK-MEL-5, cherry-picked, set 3, MITF inhibitor project, dose response (AID 493073); type: functional;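 note: SK-MEL-5 melanoma cells with luciferase driven by the MITF target TRPM1 promoter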
T4 sequence (O75030 whole entry): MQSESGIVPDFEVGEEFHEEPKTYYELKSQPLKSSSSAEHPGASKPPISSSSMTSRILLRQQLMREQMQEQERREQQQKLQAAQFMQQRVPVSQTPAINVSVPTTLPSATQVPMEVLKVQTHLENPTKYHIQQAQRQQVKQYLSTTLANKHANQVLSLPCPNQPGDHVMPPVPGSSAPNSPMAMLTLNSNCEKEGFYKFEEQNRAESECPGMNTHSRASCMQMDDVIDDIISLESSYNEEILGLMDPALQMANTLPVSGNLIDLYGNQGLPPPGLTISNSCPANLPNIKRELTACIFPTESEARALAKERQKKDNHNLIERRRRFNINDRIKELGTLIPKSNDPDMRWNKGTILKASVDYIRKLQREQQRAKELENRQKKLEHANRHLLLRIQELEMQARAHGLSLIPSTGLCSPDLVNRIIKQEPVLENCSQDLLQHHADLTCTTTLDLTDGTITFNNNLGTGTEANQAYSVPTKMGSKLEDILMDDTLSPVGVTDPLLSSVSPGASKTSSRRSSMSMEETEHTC

[21] = Luminescence Cell-Based Dose Retest to Confirm Inhibitors of Cancer Stem Cells. [Related pubchem assays (depositor defined):AID2717, AID2721]; type: functional, Homo sapiens; details: Homo sapiens
[22] = test system: Vero; test: cells; type: functional; details: Chlorocebus sabaeus
[23] = cells; type: functional

Sequence of Nonstructural protein 1 (Q194T2 whole entry): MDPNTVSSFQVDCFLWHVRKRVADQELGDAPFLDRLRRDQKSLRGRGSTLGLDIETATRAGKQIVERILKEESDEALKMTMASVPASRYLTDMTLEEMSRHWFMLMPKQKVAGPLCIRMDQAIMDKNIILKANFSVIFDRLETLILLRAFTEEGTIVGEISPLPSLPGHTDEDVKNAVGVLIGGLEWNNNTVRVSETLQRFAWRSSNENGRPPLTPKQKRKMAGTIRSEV
T2 sequence (P49327 whole entry): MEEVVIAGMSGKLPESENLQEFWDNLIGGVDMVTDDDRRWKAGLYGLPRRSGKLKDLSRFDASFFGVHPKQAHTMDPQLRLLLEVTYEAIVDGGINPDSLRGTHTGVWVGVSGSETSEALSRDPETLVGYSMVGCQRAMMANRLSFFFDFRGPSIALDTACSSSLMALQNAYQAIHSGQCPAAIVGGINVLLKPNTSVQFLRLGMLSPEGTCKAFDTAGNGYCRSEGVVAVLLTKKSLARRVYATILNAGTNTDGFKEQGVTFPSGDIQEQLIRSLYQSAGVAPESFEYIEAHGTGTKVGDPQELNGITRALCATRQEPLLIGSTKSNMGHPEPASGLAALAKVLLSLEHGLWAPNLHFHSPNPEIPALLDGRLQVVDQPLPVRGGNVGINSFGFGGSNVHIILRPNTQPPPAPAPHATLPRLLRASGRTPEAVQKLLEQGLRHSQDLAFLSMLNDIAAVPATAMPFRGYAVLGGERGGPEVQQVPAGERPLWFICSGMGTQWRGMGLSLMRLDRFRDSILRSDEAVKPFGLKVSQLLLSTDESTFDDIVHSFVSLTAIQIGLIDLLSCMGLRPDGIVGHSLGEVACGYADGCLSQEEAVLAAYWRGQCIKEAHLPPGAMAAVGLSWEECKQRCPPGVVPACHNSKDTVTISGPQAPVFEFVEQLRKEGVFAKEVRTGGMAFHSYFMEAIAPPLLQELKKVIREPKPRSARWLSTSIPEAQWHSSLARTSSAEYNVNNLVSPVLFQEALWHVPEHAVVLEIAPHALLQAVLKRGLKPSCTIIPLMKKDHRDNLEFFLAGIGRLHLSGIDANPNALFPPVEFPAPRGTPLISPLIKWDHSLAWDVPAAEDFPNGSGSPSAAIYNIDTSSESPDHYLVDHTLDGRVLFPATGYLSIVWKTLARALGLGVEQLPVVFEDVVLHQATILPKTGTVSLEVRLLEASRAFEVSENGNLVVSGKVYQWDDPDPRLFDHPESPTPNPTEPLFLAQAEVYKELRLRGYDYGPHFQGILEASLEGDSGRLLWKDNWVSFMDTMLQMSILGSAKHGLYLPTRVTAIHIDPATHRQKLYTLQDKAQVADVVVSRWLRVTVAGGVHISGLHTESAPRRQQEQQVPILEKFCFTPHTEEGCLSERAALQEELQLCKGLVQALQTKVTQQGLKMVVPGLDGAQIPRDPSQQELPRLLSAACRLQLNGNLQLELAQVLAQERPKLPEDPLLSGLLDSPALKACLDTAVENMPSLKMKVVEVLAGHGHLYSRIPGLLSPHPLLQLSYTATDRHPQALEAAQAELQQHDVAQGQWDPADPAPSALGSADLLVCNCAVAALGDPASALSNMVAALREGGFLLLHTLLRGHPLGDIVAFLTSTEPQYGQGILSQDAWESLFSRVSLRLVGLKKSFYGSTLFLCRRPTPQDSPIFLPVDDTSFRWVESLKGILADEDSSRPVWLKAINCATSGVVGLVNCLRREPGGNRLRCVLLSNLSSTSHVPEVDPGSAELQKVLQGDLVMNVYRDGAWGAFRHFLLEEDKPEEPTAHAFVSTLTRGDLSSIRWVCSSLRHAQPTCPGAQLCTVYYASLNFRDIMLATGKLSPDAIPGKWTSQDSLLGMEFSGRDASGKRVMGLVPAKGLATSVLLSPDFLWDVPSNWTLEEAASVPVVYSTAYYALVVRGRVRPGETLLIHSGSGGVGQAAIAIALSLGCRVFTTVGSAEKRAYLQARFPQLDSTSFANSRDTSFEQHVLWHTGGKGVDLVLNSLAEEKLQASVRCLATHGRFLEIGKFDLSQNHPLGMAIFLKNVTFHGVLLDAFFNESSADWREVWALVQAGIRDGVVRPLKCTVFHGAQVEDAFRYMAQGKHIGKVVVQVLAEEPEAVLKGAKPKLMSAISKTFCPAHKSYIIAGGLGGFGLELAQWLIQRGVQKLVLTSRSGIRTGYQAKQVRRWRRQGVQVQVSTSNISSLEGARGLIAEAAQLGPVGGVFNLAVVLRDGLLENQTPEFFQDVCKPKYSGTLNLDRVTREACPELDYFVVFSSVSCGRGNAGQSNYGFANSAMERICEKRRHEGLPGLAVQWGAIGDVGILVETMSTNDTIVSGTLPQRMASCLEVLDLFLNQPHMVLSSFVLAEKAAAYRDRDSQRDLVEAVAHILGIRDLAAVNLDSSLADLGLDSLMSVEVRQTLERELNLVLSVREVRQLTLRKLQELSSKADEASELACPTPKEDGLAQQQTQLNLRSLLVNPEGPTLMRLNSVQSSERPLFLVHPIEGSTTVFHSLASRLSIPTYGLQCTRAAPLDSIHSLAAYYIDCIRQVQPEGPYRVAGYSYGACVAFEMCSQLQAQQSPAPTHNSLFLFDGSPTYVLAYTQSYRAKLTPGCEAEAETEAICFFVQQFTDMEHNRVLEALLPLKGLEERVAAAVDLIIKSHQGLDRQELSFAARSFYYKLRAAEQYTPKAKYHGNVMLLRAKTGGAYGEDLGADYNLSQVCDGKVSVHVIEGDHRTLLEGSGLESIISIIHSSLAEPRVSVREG
Sequence of Protein Wnt-3a (P27467 whole entry): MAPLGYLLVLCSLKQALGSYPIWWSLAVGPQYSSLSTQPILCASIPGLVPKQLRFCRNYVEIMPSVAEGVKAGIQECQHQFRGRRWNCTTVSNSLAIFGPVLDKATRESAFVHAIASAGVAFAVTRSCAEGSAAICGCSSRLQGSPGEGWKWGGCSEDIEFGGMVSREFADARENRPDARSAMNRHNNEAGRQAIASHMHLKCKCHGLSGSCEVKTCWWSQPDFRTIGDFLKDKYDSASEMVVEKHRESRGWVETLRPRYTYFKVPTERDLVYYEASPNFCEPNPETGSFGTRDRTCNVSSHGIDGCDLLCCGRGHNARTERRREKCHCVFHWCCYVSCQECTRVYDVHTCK
Sequence of ATP-dependent molecular chaperone HSP82 (C4YTQ8 whole entry): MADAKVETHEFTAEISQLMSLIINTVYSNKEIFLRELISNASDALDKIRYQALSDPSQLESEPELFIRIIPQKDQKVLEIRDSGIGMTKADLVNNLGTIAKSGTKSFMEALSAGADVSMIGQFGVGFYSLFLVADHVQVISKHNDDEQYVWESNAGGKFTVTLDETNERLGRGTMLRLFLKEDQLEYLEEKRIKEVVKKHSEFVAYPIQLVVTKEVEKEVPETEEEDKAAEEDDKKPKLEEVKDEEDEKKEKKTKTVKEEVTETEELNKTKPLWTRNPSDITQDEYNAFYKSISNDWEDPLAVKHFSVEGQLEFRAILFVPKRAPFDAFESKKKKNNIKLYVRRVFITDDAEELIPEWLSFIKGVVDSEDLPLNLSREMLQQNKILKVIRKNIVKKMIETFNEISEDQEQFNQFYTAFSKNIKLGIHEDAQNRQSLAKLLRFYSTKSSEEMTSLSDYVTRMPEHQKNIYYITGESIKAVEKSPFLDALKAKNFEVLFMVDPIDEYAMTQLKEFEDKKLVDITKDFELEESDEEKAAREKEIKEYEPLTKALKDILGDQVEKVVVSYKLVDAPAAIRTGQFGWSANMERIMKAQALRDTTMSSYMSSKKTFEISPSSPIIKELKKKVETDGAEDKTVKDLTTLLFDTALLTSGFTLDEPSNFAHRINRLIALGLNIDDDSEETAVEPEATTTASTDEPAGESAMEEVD

In the case of `O=C(c1ccc(Cn2c(=O)[nH]c3ccccc3c2=O)cc1)N1CCN(c2ccc(F)cc2)CC1`, the EC50 [1] is reported as > 180 µM (inactive), the EC50 [2] is reported as > 150 µM (inactive) and the EC50 [3] is reported as 912 nM (active). For the same molecule, the EC50 [4] was 14.3 µM (active).

For `O=C(CN1CC(=O)Oc2ccccc21)NCc1ccco1`, the IC50 [5] was 6.58 µM (active).

With `CCCc1c(CC)c(=N)c2ccccc2n1C` the IC50 [6] was 11.3 µM (active), the EC50 [7] was 121 nM (active) and the EC50 [8] was > 60 µM (not active).

With `Cc1ccc(COC(=O)c2cc([N+](=O)[O-])ccc2N2CCOCC2)cc1` the EC50 [9] was 529 nM (inconclusive), the EC50 [10] was 11 µM (inconclusive) and the IC50 [11] was 9.01 µM (active). For the same molecule, the EC50 [12] was 127 nM (inconclusive), the IC50 [13] was > 80 µM (inactive) and the EC50 [14] was 223 nM (active). The IC50 [15] was 10.3 µM (active).

With `CC(C)C(=O)NC(c1cccs1)c1cc([N+](=O)[O-])c2cccnc2c1O` (configuration not stated) the EC50 [16] was 2.59 µM (active), the EC50 [1] was > 180 µM (inactive) and the EC50 [2] was 24.6 µM (active). For the same molecule, the EC50 [3] was 242 nM (active), the EC50 [17] was 6.98 µM (active) and the EC50 [4] was 13.4 µM (active). For the same molecule, the AC50 [18] was 3.87 µM (active) and the EC50 [19] was > 150 µM (not active).

For `COc1ccc(Br)cc1C(C[N+](=O)[O-])c1c(N)n(C)c(=O)n(C)c1=O` (configuration not stated), the AC50 [20] was 8.73 µM (active), the AC50 [21] was 3.46 µM (active) and the CC50 [22] was 10.5 µM (active).

For `COc1ccc(N2CCN(C(=O)c3cccc(Cn4cc(Cl)cn4)c3)CC2)cc1`, the IC50 [5] was > 100 µM (active).

In the case of `CCOc1ccccc1NS(=O)(=O)c1ccc(-c2cnc(C3CC3)o2)cc1`, the IC50 [13] is reported as > 80 µM (inactive).

In the case of `O=C(COC(=O)CCN1C(=O)/C(=C\C=C\c2ccccc2)SC1=S)Nc1cc(F)ccc1F`, the AC50 [20] is reported as 7.49 µM (active) and the IC50 [23] is reported as 26.4 µM (active).

In the case of `Cc1cc(C)cc(Nc2c([N+](=O)[O-])nn(-c3ccc(Cl)cc3)[n+]2[O-])c1`, the IC50 [5] is reported as > 100 µM (active), the EC50 [7] is reported as 387 nM (active) and the EC50 [8] is reported as > 60 µM (not active).

In the case of `O=C(Nc1ccc(C(F)(F)F)cc1)C1CCN(S(=O)(=O)c2ccc(N3CCCC3=O)cc2)CC1`, the AC50 [18] is reported as 3.1 µM (active) and the IC50 [6] is reported as 2.18 µM (active).

For `Cc1cc(C(C)(C)C)cc(C)c1C[n+]1ccc2ccccc2c1`, the IC50 [13] was > 80 µM (inactive) and the AC50 [18] was 1.45 µM (active).
